Test results taken from the NIST ThermoML archive (doi:10.1016/j.jct.2007.05.011).
± gives the expanded uncertainty stated by the source.

Key:
[1] = 101 kPa, Liquid; for mass density: Vibrating tube method
[2] = xn = mol fraction of the nth substance listed; details: 101 kPa, Liquid, x1 = 1; for mass density: Vibrating tube method

CO [methanol]
[1]
Details | mass density [kg/m3] | speed of sound [m/s]
288.15 K | 795.775 ± 30 | 1134.5 ± 6.2
290.65 K | 793.495 ± 30 | 1126.2 ± 6.1
293.15 K | 791.149 ± 30 | 1118 ± 6.1
295.65 K | 788.811 ± 30 | 1109.8 ± 6.1
298.15 K | 786.463 ± 30 | 1101.6 ± 6
300.65 K | 784.102 ± 30 | 1093.4 ± 6
303.15 K | 781.764 ± 30 | 1085.5 ± 6
305.65 K | 779.385 ± 30 | 1077.3 ± 5.9
308.15 K | 777.026 ± 30 | 1069.2 ± 5.9
310.65 K | 774.659 ± 30 | 1061.1 ± 5.9
313.15 K | 772.261 ± 30 | 1052.9 ± 5.8
315.65 K | 769.86 ± 30 | 1044.9 ± 5.8
318.15 K | 767.541 ± 30 | 1036.7 ± 5.8
320.65 K | 765.074 ± 30 | 1028.6 ± 5.8
323.15 K | 762.738 ± 30 | 1020.5 ± 5.7

CCO [ethanol] + NCCO.O=CO
[2]
Details | mass density [kg/m3] | speed of sound [m/s]
288.15 K | 794.444 ± 30 | 1178.2 ± 6.3
290.65 K | 792.305 ± 30 | 1169.1 ± 6.3
293.15 K | 790.158 ± 30 | 1160.3 ± 6.3
295.65 K | 788.027 ± 30 | 1151.7 ± 6.2
298.15 K | 785.89 ± 30 | 1143.1 ± 6.2
300.65 K | 783.729 ± 30 | 1134.6 ± 6.2
303.15 K | 781.591 ± 30 | 1126.2 ± 6.1
305.65 K | 779.402 ± 30 | 1117.8 ± 6.1
308.15 K | 777.238 ± 30 | 1109.4 ± 6.1
310.65 K | 775.055 ± 30 | 1101 ± 6
313.15 K | 772.846 ± 30 | 1092.7 ± 6
315.65 K | 770.625 ± 30 | 1084.3 ± 6
318.15 K | 768.482 ± 30 | 1075.9 ± 5.9
320.65 K | 766.198 ± 30 | 1067.5 ± 5.9
323.15 K | 764.019 ± 30 | 1058.8 ± 5.9

CCO [ethanol]
[1]
Details | mass density [kg/m3] | speed of sound [m/s]
288.15 K | 794.444 ± 30 | 1178.2 ± 6.3
290.65 K | 792.305 ± 30 | 1169.1 ± 6.3
293.15 K | 790.158 ± 30 | 1160.3 ± 6.3
295.65 K | 788.027 ± 30 | 1151.7 ± 6.2
298.15 K | 785.89 ± 30 | 1143.1 ± 6.2
300.65 K | 783.729 ± 30 | 1134.6 ± 6.2
303.15 K | 781.591 ± 30 | 1126.2 ± 6.1
305.65 K | 779.402 ± 30 | 1117.8 ± 6.1
308.15 K | 777.238 ± 30 | 1109.4 ± 6.1
310.65 K | 775.055 ± 30 | 1101 ± 6
313.15 K | 772.846 ± 30 | 1092.7 ± 6
315.65 K | 770.625 ± 30 | 1084.3 ± 6
318.15 K | 768.482 ± 30 | 1075.9 ± 5.9
320.65 K | 766.198 ± 30 | 1067.5 ± 5.9
323.15 K | 764.019 ± 30 | 1058.8 ± 5.9

O [water] + NCCO.O=CO
[2]
Details | mass density [kg/m3] | speed of sound [m/s]
290.65 K | 998.68 ± 30 | 1474.7 ± 7.5
295.65 K | 997.65 ± 30 | 1489.9 ± 7.6
300.65 K | 996.37 ± 30 | 1503.4 ± 7.6
305.65 K | 994.86 ± 30 | 1515.1 ± 7.7
310.65 K | 993.15 ± 30 | 1525 ± 7.7
313.15 K | – | 1529.3 ± 7.7
315.65 K | 991.24 ± 30 | 1533.2 ± 7.7
318.15 K | – | 1536.6 ± 7.8
320.65 K | 989.15 ± 30 | 1539.6 ± 7.8
323.15 K | 988.04 ± 30 | 1542.1 ± 7.8

NCCO.O=CO [2-hydroxyethylammonium formate]
[1]
Details | mass density [kg/m3] | speed of sound [m/s]
288.15 K | 1183.57 ± 31 | 1733.9 ± 9.9
290.65 K | 1181.81 ± 31 | 1727.4 ± 9.9
293.15 K | 1180.04 ± 31 | 1721.3 ± 9.8
295.65 K | 1178.27 ± 31 | 1715.1 ± 9.8
298.15 K | 1176.49 ± 31 | 1709 ± 9.8
300.65 K | 1174.71 ± 31 | 1702.9 ± 9.8
303.15 K | 1172.94 ± 31 | 1696.8 ± 9.8
305.65 K | 1171.16 ± 31 | 1690.8 ± 9.8
308.15 K | 1169.39 ± 31 | 1684.8 ± 9.7
310.65 K | 1167.62 ± 31 | 1678.7 ± 9.7
313.15 K | 1165.84 ± 31 | 1672.7 ± 9.7
315.65 K | 1164.06 ± 31 | 1666.7 ± 9.7
318.15 K | 1162.29 ± 31 | 1660.8 ± 9.6
320.65 K | 1160.51 ± 31 | 1654.8 ± 9.6
323.15 K | 1158.73 ± 31 | 1648.9 ± 9.6

CO [methanol] + NCCO.O=CO
[2]
Details | mass density [kg/m3] | speed of sound [m/s]
288.15 K | 795.775 ± 30 | 1134.5 ± 6.2
290.65 K | 793.495 ± 30 | 1126.2 ± 6.1
293.15 K | 791.149 ± 30 | 1118 ± 6.1
295.65 K | 788.811 ± 30 | 1109.8 ± 6.1
298.15 K | 786.463 ± 30 | 1101.6 ± 6
300.65 K | 784.102 ± 30 | 1093.4 ± 6
303.15 K | 781.764 ± 30 | 1085.5 ± 6
305.65 K | 779.385 ± 30 | 1077.3 ± 5.9
308.15 K | 777.026 ± 30 | 1069.2 ± 5.9
310.65 K | 774.659 ± 30 | 1061.1 ± 5.9
313.15 K | 772.261 ± 30 | 1052.9 ± 5.8
315.65 K | 769.86 ± 30 | 1044.9 ± 5.8
318.15 K | 767.541 ± 30 | 1036.7 ± 5.8
320.65 K | 765.074 ± 30 | 1028.6 ± 5.8
323.15 K | 762.738 ± 30 | 1020.5 ± 5.7
